Data published in US11708348B2, “Protease inhibitors for treatment of coronavirus infections” (The Scripps Research Institute, priority 2021, dated 2023).

The molecules below were run on SARS-CoV-2 strain USA-WA1/2020 (assay: microbe, parasite or virus in culture). Details: HeLa-ACE2 cells, SARS-CoV-2 infection, 24 h; class symbols; read-out: EC50, uM (Hela).
Type: cell-based

Row | SMILES | EC50
1 | COc1cccc2[nH]c(C(=O)N[C@@H](CC(C)C)C(=O)N[C@@H](C[C@@H]3CCNC3=O)C(=O)COC(=O)c3c(Cl)cccc3Cl)cc12 [Compound 3, (S)-3-((S)-2-(4-methoxy-1H-indole-2-carboxamido)-4-methylpentanamido)-2-oxo-4-((S)-2-oxopyrrolidin-3-yl)butyl 2,6-dichlorobenzoate] | 0.2 to 0.5 µM

Same assay, conditions: Severe acute respiratory syndrome coronavirus 2, HeLa-ACE2, 24 h, HeLa-ACE2 cells, SARS-CoV-2 infection, 24 h; class symbols; read-out: EC50, uM (Hela)

Row | SMILES | EC50
2 | CC(C)C[C@H](NC(=O)c1cn2ccccc2n1)C(=O)N[C@@H](C[C@@H]1CCNC1=O)C(=O)COC(F)(F)F [Compound 202, N-((S)-4-methyl-1-oxo-1-(((S)-3-oxo-1-((S)-2-oxopyrrolidin-3-yl)-4-(trifluoromethoxy)butan-2-yl)amino)pentan-2-yl)imidazo[1,2-a]pyridine-2-carboxamide] | 0.05 to 0.2 µM
3 | CC(C)C[C@H](NC(=O)C1Cc2ccccc2N1)C(=O)N[C@@H](C[C@@H]1CCNC1=O)C(=O)COC(F)(F)F (stereo partly drawn) [Compound 204, N-((S)-4-methyl-1-oxo-1-(((S)-3-oxo-1-((S)-2-oxopyrrolidin-3-yl)-4-(trifluoromethoxy)butan-2-yl)amino)pentan-2-yl)indoline-2-carboxamide] | 0.05 to 0.2 µM
4 | Cc1ccccc1NC(=O)C(=O)N[C@@H](Cc1ccccc1)C(=O)N[C@@H](C[C@@H]1CCNC1=O)C(=O)COc1c(F)c(F)cc(F)c1F [Compound 106, N1-((S)-1-oxo-1-(((S)-3-oxo-1-((S)-2-oxopyrrolidin-3-yl)-4-(2,3,5,6-tetrafluorophenoxy)butan-2-yl)amino)-3-phenylpropan-2-yl)-N2-(o-tolyl)oxalamide] | < 0.05 µM
5 | CC(C)C[C@@H](O)C(=O)N1C[C@H]2[C@@H]([C@H]1C(=O)N[C@@H](C[C@@H]1CCNC1=O)C(=O)COC(F)(F)F)C2(C)C [Compound 361, (1R,2S,5S)-3-((R)-2-hydroxy-4-methylpentanoyl)-6,6-dimethyl-N-((S)-3-oxo-1-((S)-2-oxopyrrolidin-3-yl)-4-(trifluoromethoxy)butan-2-yl)-3-azabicyclo-[3.1.0]hexane-2-carboxamide] | < 0.05 µM
6 | CC1(C)[C@@H]2[C@@H](C(=O)N[C@@H](C[C@@H]3CCNC3=O)C(=O)COC(F)(F)F)N(C(=O)[C@@H](O)CC3CC3)C[C@@H]21 [Compound 394, (1R,2S,5S)-3-((S)-3-cyclopropyl-2-hydroxypropanoyl)-6,6-dimethyl-N-((S)-3-oxo-1-((S)-2-oxopyrrolidin-3-yl)-4-(trifluoromethoxy)butan-2-yl)-3-azabicyclo[3.1.0] hexane-2-carboxamide] | < 0.05 µM
7 | O=C(NC(CC1CCOCC1)C(=O)N[C@@H](C[C@@H]1CCNC1=O)C(=O)COC(F)(F)F)c1cc(-c2ccccc2F)on1 (stereo partly drawn) [Compound 183, 5-(2-fluorophenyl)-N-(1-oxo-1-(((S)-3-oxo-1-((S)-2-oxopyrrolidin-3-yl)-4-(trifluoromethoxy)butan-2-yl)amino)-3-(tetrahydro-2H-pyran-4-yl)propan-2-yl)isoxazole-3-carboxamide] | < 0.05 µM
8 | CC(C)C[C@H](NC(=O)c1c[nH]c2cccnc12)C(=O)N[C@@H](C[C@@H]1CCNC1=O)C(=O)COC(F)(F)F [Compound 263, N-((S)-4-methyl-1-oxo-1-(((S)-3-oxo-1-((S)-2-oxopyrrolidin-3-yl)-4-(trifluoromethoxy)butan-2-yl)amino)pentan-2-yl)-1H-pyrrolo[3,2-b]pyridine-3-carboxamide] | 0.2 to 0.5 µM
9 | COc1ccccc1[C@@H](O)C(=O)N1C[C@H]2[C@@H]([C@H]1C(=O)N[C@@H](C[C@@H]1CCNC1=O)C(=O)COC(F)(F)F)C2(C)C [Compound 382, (1R,2S,5S)-3-((R)-2-hydroxy-2-(2-methoxyphenyl)acetyl)-6,6-dimethyl-N-((S)-3-oxo-1-((S)-2-oxopyrrolidin-3-yl)-4-(trifluoromethoxy)butan-2-yl)-3-azabicyclo-[3.1.0]hexane-2-carboxamide] | < 0.05 µM

Same assay, conditions: Severe acute respiratory syndrome coronavirus 2, HeLa-ACE2, 24 h, HeLa-ACE2 cells, SARS-CoV-2 infection, 24 h; read-out: EC50, uM (Hela)

Row | SMILES | EC50
10 | [2H]C([2H])([2H])C([2H])([2H])CCCC(=O)N1CC2(CC2)C[C@H]1C(=O)N[C@@H](C[C@@H]1CCNC1=O)C(=O)COC(F)(F)F [Compound 755, (S)-5-(hexanoyl-5,5,6,6,6-d5)-N-((S)-3-oxo-1-((S)-2-oxopyrrolidin-3-yl)-4-(trifluoromethoxy)butan-2-yl)-5-azaspiro[2.4]heptane-6-carboxamide] | < 0.05 µM
11 | O=C1NCC[C@H]1C[C@H](NC(=O)[C@@H]1CC2(CC2)CN1C(=O)C(O)c1cccc(F)c1)C(=O)COC(F)(F)F (stereo partly drawn) [Compound 405, (6S)-5-(2-(3-fluorophenyl)-2-hydroxyacetyl)-N-((S)-3-oxo-1-((S)-2-oxopyrrolidin-3-yl)-4-(trifluoromethoxy)butan-2-yl)-5-azaspiro[2.4]heptane-6-carboxamide] | 0.05 to 0.2 µM
12 | O=C1NCC[C@H]1C[C@H](NC(=O)[C@@H]1[C@H]2CCC[C@H]2CN1C(=O)[C@H](O)c1ccccc1F)C(=O)COC(F)(F)F [Compound 409, (1S,3aR,6aS)-2-((R)-2-(2-fluorophenyl)-2-hydroxyacetyl)-N-((S)-3-oxo-1-((S)-2-oxopyrrolidin-3-yl)-4-(trifluoromethoxy)butan-2-yl)octahydrocyclo-penta[c]pyrrole-1-carboxamide] | < 0.05 µM
13 | CC1(C)[C@@H]2[C@@H](C(=O)N[C@@H](C[C@@H]3CCNC3=O)C(=O)COC(F)(F)F)N(C(=O)C3(O)CCC(F)(F)CC3)C[C@@H]21 [Compound 630, (1R,2S,5S)-3-(4,4-difluoro-1-hydroxycyclohexane-1-carbonyl)-6,6-dimethyl-N-((S)-3-oxo-1-((S)-2-oxopyrrolidin-3-yl)-4-(trifluoromethoxy)butan-2-yl)-3-azabicyclo[3.1.0]hexane-2-carboxamide] | 0.05 to 0.2 µM
14 | CCC(CC)C(=O)N1CC2(CC2)C[C@H]1C(=O)N[C@@H](C[C@@H]1CCNC1=O)C(=O)COC(F)(F)F [Compound 448, (S)-5-(2-ethylbutanoyl)-N-((S)-3-oxo-1-((S)-2-oxopyrrolidin-3-yl)-4-(trifluoromethoxy)butan-2-yl)-5-azaspiro[2.4]heptane-6-carboxamide] | 0.05 to 0.2 µM
15 | O=C(NCC(F)F)C(=O)N1C[C@@H]2CCC[C@@H]2[C@H]1C(=O)N[C@@H](C[C@@H]1CCNC1=O)C(=O)COC(F)(F)F [Compound 519, (1S,3aR,6aS)-2-(2-((2,2-difluoroethyl)amino)-2-oxoacetyl)-N-((S)-3-oxo-1-((S)-2-oxopyrrolidin-3-yl)-4-(trifluoromethoxy)butan-2-yl)octahydrocyclo-penta[c]pyrrole-1-carboxamide] | 0.2 to 0.5 µM
16 | Cc1ccccc1NC(=O)C(=O)N1CC2(CC2)C[C@H]1C(=O)N[C@@H](C[C@@H]1CCNC1=O)C(=O)COC(F)(F)F [Compound 527, (S)-N-((S)-3-oxo-1-((S)-2-oxopyrrolidin-3-yl)-4-(trifluoromethoxy)butan-2-yl)-5-(2-oxo-2-(o-tolylamino)acetyl)-5-azaspiro[2.4]heptane-6-carboxamide] | < 0.05 µM
17 | CC(C)(C)NC(=O)C(=O)N[C@@H](CC1CC1)C(=O)N[C@@H](C[C@@H]1CCNC1=O)C(=O)COC(F)(F)F [Compound 503, N1-(tert-butyl)-N2-((S)-3-cyclopropyl-1-oxo-1-(((S)-3-oxo-1-((S)-2-oxopyrrolidin-3-yl)-4-(trifluoromethoxy)butan-2-yl)amino)propan-2-yl)oxalamide] | < 0.05 µM
